Results: article PMC10877925 (Cell Communication and Signaling : CCS, 2024)

What was measured:
PfEGF1-α = target: T1, PfEGF1-α (Plasmodium falciparum, UniProt Q8I0P6); assay: bio-layer interferometry; type: binding
T1 construct: gene PF3D7_1357000; recombinant, pET28a vector, E. coli BL21; immobilised on NTA biosensor for BLI
T1 sequence (Q8I0P6 1-443): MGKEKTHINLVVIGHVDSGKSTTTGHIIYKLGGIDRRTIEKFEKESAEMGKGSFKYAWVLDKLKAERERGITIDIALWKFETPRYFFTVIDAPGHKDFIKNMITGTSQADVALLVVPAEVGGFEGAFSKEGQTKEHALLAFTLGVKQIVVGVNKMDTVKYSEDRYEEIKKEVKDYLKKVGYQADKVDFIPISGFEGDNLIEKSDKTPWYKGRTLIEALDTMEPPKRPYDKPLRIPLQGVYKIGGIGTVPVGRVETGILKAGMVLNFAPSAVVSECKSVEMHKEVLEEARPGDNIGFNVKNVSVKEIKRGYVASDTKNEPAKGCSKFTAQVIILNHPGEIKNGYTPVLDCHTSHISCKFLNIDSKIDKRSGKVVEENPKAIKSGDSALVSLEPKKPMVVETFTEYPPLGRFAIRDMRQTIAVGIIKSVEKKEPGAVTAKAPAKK

PfSpdsyn = target: T2, PfSpdsyn (Plasmodium falciparum, UniProt Q8II73); assay: bio-layer interferometry; type: binding
T2 construct: gene PF3D7_1129000; 29-residue N-terminal deletion, pET28a vector, E. coli BL21; immobilised on NTA biosensor for BLI
T2 sequence (Q8II73 30-321): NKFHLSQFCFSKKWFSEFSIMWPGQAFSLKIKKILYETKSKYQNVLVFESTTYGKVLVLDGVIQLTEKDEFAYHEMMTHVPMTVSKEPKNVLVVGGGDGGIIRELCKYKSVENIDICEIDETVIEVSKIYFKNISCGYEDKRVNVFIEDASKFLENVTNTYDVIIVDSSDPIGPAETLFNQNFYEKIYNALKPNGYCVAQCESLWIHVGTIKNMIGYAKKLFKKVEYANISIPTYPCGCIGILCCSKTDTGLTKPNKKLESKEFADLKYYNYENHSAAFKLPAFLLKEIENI

CC1=C(O)C(=O)C=C2C1=CC=C1[C@@]2(C)CC[C@@]2(C)[C@@H]3C[C@](C)(C(=O)O)CC[C@]3(C)CC[C@]12C [Celastrol]
Kd (PfEGF1-α): 243 µM
Kd (PfSpdsyn): 67.4 µM
